Consider 6 molecules from US20250382619A1, “CANCER THERAPY WITH TGF-BETA-2 AND IRINOTECAN AGENTS” (GMP BIOTECHNOLOGY LIMITED, priority 2023, published 2025).

Series [1] has as its system pancreatic cancer. Kind of series: Clinical study of overall survival, pancreatic cancer patients treated with irinotecan, by TGF-β2 expression (Example 5, two cohorts). The settings on record: for Synergy in combination with reduced TGF-β2 expression: overall survival, pancreatic cancer patients; for Improvement in overall survival (OS) with reduced TGF-β2 expression in patients treated with the agent: pancreatic cancer patients selected by treatment; for Median Months Overall (95% CI): irinotecan-treated patients. Format: in vivo, human. The text has this: The study of FIG. 5 used Quartiles of TGFB2 from mRNA expression z-scores relative to all samples (log RNA Seq V2 RSEM).

Series [2] concerns pancreatic cancer. The experiment in a line: Clinical study of overall survival, pancreatic cancer patients treated with irinotecan, by TGF-β2 expression quartiles (Example 6). The note with it: TGFB2 quartile (D) 0.61-2.64, high TGF-β2 expression. The class given is in vivo, human. Here is the method: Kaplan-Meier Plotter was used to calculate patient survival to determine the connection between improved overall survival in pancreatic cancer and reduced TGF-β2 expression when patients were also treated with irinotecan. The study of FIG. 6 used Quartiles of TGFB2 from mRNA expression z-scores relative to all samples (log RNA Seq V2 RSEM).

Several values for one entry are separate records, joined by “and”; a condition that tells them apart may be missing. Equal values may be shown once. In the oligonucleotide strings, read from the 5' end, every base follows the letter of its sugar. An asterisk marks phosphorothioate; unmarked linkages are phosphodiester. Other units and linkages are bracketed, terminal groups are in braces. A string of capitals states the bases alone. d = 2'-deoxy (DNA) Bounds are passed on as bounds.

On to `O=c1[nH]cc(F)c(=O)[nH]1` [fluorouracil], for which, in the series with pancreatic cancer [1], the “Synergy in combination with reduced TGF-β2 expression” value was “none of oxaliplatin, leucovorin, and fluorouracil showed significant synergy”; the “Improvement in overall survival (OS) with reduced TGF-β2 expression in patients treated with the agent” value is “not observed”. With `Nc1ccn([C@@H]2O[C@H](CO)[C@@H](O)C2(F)F)c(=O)n1` [gemcitabine], in the series on pancreatic cancer [1], the “Improvement in overall survival (OS) with reduced TGF-β2 expression in patients treated with the agent” value is recorded as “not observed”. Consider `CCc1c2c(nc3ccc(OC(=O)N4CCC(N5CCCCC5)CC4)cc13)-c1cc3c(c(=O)n1C2)COC(=O)[C@]3(O)CC` [irinotecan], for which the “Median Months Overall (95% CI)” value in the series with pancreatic cancer [2] is 8 months and 8.22 (6.02-NA) months; in the series with pancreatic cancer [1] (TGFB2 cohort (A) −1.75-0.17, low TGF-β2 expression), >>34 months; in the series with pancreatic cancer [1] (TGFB2 cohort (B) 0.33-2.64, high TGF-β2 expression) it was 23 months and 23.08 (8.22-NA) months. For the same molecule, the “Improvement in overall survival (OS) with reduced TGF-β2 expression in patients treated with the agent” value with pancreatic cancer [1] is “showed improvement in overall survival”. In the case of `Nc1nc2c(c(=O)[nH]1)N(C=O)C(CNc1ccc(C(=O)N[C@@H](CCC(=O)O)C(=O)O)cc1)CN2` (some centres unmarked) [leucovorin], in the series on pancreatic cancer [1], the “Synergy in combination with reduced TGF-β2 expression” value was “none of oxaliplatin, leucovorin, and fluorouracil showed significant synergy”; the “Improvement in overall survival (OS) with reduced TGF-β2 expression in patients treated with the agent” value is given as “not observed”. On to `O=C1[O][Pt]2([NH][C@@H]3CCCC[C@H]3[NH]2)[O]C1=O` [oxaliplatin], for which the “Improvement in overall survival (OS) with reduced TGF-β2 expression in patients treated with the agent” value with pancreatic cancer [1] was “not observed”. As to “Trabedersen: synthetic 18-mer phosphorothioate oligodeoxynucleotide complementary to human TGF-β2 mRNA, CGGCATGTCT ATTTTGTA (antisense dC*dG*dG*dC*dA*dT*dG*dT*dC*dT*dA*dT*dT*dT*dT*dG*dT*dA)”, the pH of solution is 6-8.
